molecular target: T1, Serine/threonine-protein kinase greatwall (Human, UniProt Q96GX5); assay: MASTL Activity Assay
T1 sequence (Q96GX5 whole entry): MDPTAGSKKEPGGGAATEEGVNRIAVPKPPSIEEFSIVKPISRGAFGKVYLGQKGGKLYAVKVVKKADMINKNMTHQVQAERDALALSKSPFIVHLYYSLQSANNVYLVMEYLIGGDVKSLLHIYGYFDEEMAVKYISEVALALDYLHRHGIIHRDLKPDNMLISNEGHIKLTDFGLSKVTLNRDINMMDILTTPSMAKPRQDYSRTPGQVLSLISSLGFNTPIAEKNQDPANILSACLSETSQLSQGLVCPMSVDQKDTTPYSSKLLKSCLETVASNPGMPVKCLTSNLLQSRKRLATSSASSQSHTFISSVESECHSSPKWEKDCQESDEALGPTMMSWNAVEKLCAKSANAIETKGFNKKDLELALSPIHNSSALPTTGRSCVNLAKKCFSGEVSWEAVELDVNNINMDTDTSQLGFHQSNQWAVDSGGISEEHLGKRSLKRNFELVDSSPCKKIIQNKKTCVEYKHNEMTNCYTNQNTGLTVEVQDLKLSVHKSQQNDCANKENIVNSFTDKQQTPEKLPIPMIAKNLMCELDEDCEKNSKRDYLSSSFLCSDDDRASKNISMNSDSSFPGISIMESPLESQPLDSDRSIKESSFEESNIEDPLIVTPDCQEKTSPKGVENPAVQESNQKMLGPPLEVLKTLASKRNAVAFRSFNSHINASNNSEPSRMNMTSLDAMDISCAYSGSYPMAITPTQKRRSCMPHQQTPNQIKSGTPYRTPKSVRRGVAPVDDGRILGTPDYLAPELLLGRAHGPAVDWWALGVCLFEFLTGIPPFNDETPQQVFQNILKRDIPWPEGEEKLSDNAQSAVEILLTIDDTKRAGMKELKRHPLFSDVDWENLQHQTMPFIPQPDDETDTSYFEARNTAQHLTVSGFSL
Method: Wild-type human active MASTL (154 pM) was incubated in assay buffer (50 mM HEPES, 100 mM NaCl, 0.1 mM EGTA, 10 mM MgCl2, 0.01% Tween-20, 0.5 mM TCEP, pH 7.5) with biotin tagged 40-mer ENSA peptide (10 nM), test compound and ATP (18 μM) for 60 minutes at room temperature. Test compounds were assayed using a 12-point dose range consisting of a 0, DMSO control and 10 sequential doses consisting from 0.0005, 0.002, 0.005, 0.014, 0.04, 0.12, 0.37, 1.11, 3.33 and 10 μM. The DMSO concentration was the same (1%) in all samples. An equal volume of detection buffer (assay buffer+267.5 pM Ab-K, 1.25 nM SA-D2, 20 mM EDTA and 400 mM KF) was added to stop the reaction to make a final volume of 20 μl, RT for 60 mins. Activity was measured using a plate reader (PerkinElmer EnSight) by the FRET signal generated between SA-D2 (streptavidin-D2) and Ab-K (anti-phospho-Serine 67 ENSA antibody (rabbit polyclonal, using standard techniques by a commercial supplier) conjugated to Cryptate). HTRF reagents (CisBio) were prepared as per the manufacturer recommendations. The 40-mer biotin-tagged ENSA peptide (synthesised by Bionics) used was based around Serine 67 on ENSA ([…]).

`Cc1nc(C)n2cc(-c3nc(N)nc(NC(c4c[nH]c(C(F)(F)F)n4)C(C)C)n3)ccc12` (stereo unspecified) [US20250352549, Example 181] and `Cc1nc(F)c2ccc(-c3nc(N)nc(NC(c4c[nH]c(C(F)(F)F)n4)C(C)C)n3)cn12` (stereo unspecified) [US20250352549, Example 147] cannot be ordered by IC50: < 500 nM for the first, < 500 nM for the second.

`[2H]C([2H])([2H])Nc1nc(NC(CC)c2c[nH]c(C(F)(F)F)n2)nc(-c2ccc3cnc(C)n3c2)n1` (stereo unspecified) [US20250352549, Example 5] and `[2H]C([2H])([2H])n1ncc2ccc(-c3nc(N)nc(NC(c4c[nH]c(C(F)(F)F)n4)C(C)C)n3)cc21` (stereo unspecified) [US20250352549, Example 28] cannot be ordered by IC50: < 500 nM for the first, < 500 nM for the second.

First: Cc1ncc2ccc(-c3nc(N)nc(NC(Cc4cccc(Cl)c4Cl)c4ncno4)n3)cn12 (stereo unspecified) [US20250352549, Example 23]
Second: CNc1nc(NC(Cc2cccc(Cl)c2Cl)C(=O)O)nc(-c2ccc3cnc(C)n3c2)n1 (stereo unspecified) [US20250352549, Example 138]
The IC50 of the first is higher: > 1000 nM for the first, < 500 nM for the second. The second is the more potent here.

`CC(=O)N(C)C(CNc1cc(-c2ccc3cnc(C)n3c2)nc(N)n1)c1cccc(Cl)c1Cl` (stereo unspecified) [US20250352549, Example 19] and `CNC(CNc1cc(-c2ccc3cnc(C)n3c2)nc(N)n1)c1cccc(Cl)c1Cl` (stereo unspecified) [US20250352549, Example 17] cannot be ordered by IC50: < 500 nM for the first, < 500 nM for the second.

`[2H]C([2H])([2H])Nc1nc(NC(C)(C)c2ccn(C(F)F)n2)nc(-c2ccc3cnc(N)n3c2)n1` [US20250352549, Example 30] and `CC(C)(Nc1nc(N)nc(-c2ccc3cnc(N)n3c2)n1)c1ccn(C(F)F)n1` [US20250352549, Example 10] cannot be ordered by IC50: < 500 nM for the first, < 500 nM for the second.

First: Cc1ncc2ccc(-c3nc(C#N)nc(NC(C)(C)c4ccn(C(F)F)n4)n3)cn12 [US20250352549, Example 12]
Second: Cc1ncc2ncc(-c3nc(N)nc(NC(C)(C)c4ccn(C(F)F)n4)n3)cn12 [US20250352549, Example 1]
The IC50 of the first is higher: > 1000 nM for the first, < 500 nM for the second. The second is the more potent here.

`Nc1nc(NC(c2ccn(C(F)F)n2)C2CC2)nc(-c2ccc3[nH]ncc3c2)n1` (stereo unspecified) [US20250352549, Example 33] and `CC(C)C(Nc1nc(N)nc(-c2ccc3cn[nH]c3c2)n1)c1c[nH]c(C(F)(F)F)n1` (stereo unspecified) [US20250352549, Example 156] cannot be ordered by IC50: < 500 nM for the first, < 500 nM for the second.

`Nc1nc(NCCc2ccc(Cl)c(F)c2F)nc(-c2ccc3cnc(N)n3c2)n1` [US20250352549, Example 42] and `Cc1ncc2ccc(-c3nc(N)nc(N(C)Cc4cccc(Cl)c4F)n3)cn12` [US20250352549, Example 163] cannot be ordered by IC50: < 500 nM for the first, < 500 nM for the second.

`CC(C)C(Nc1nc(N)nc(-c2ccc3c(F)nn(C)c3c2)n1)c1c[nH]c(C(F)(F)F)n1` (stereo unspecified) [US20250352549, Example 45] and `CC(C)C(Nc1nc(N)nc(-c2ccc3c(cnn3C)c2)n1)c1c[nH]c(C(F)(F)F)n1` (stereo unspecified) [US20250352549, Example 34] cannot be ordered by IC50: < 500 nM for the first, < 500 nM for the second.

`[2H]C([2H])([2H])n1ncc2ccc(-c3nc(N)nc(NC(C)(C)Cc4cccc(F)n4)n3)cc21` [US20250352549, Example 36] and `[2H]C([2H])([2H])n1ncc2ccc(-c3cc(NC(C)(C)Cn4ccc(C(F)(F)F)n4)nc(N)n3)cc21` [US20250352549, Example 40] cannot be ordered by IC50: < 500 nM for the first, < 500 nM for the second.

`Cc1ncc2ccc(-c3nc(N)nc(N(C)C(c4cn(C)c(C(F)(F)F)n4)C(C)C)n3)cn12` (stereo unspecified) [US20250352549, Example 169] was tested, and the IC50 was “in the range around 750 nM”.

Source: BindingDB's records for patent US20250352549 (Avelos Therapeutics, 2025)
